The results in this text go back to EP0059645A1, “Method and kit for identification of beta-lactamases” (NATIONAL RESEARCH DEVELOPMENT CORPORATION, priority 1981, dated 1982).

Test in all cases: Competitive assay with nitrocefin (RSAI)
Experiment [1] has as its target T1, Chromosomal, constitutive beta-lactamase enzyme (Enterobacter cloacae, UniProt P05364).
T1 construct: Normally, therefore, the beta-lactamase has to be extracted from the cells for the purpose of the present invention; endogenous in cells
The format is biochemical, E. cloacae.

For experiment [2], the target named is SHV-1 (Escherichia coli, UniProt P0AD63). The format is biochemical, E. coli 2008E. Also on record: the beta-lactamase has to be extracted from the cells for the purpose of the present invention; made in house; host or cells: E. coli 2008E (crude cell extract).
The target of experiment [3] is OXA-3 (Pseudomonas aeruginosa, UniProt Q51429). It is filed as biochemical, E. coli R57B. Also on record: Normally, therefore, the beta-lactamase has to be extracted from the cells for the purpose of the present invention; endogenous in cells.
Experiment [4] addresses TEM-2 (Escherichia coli, UniProt P62593, Q37K). It is filed as biochemical, E. coli 1725E. The source says: (§1) It is convenient to express the results in terms of a Relative Substrate Affinity Index (RSAI) value.
(§2) RSAI = Concentration of competing substrate which gives 50% inhibition of ring-opening hydrolysis of the chromogenic substrate
(§3) Concentration of chromogenic substrate in the assay A high RSAI value therefore indicates a low affinity of the beta-lactamase for that competing substrate, and therefore predicts resistance of a beta-lactam competing substrate to hydrolysis by the beta-lactamase. Low RSAI values, in contrast, predict sensitivity to hydrolysis by a beta-lactamase.
(§4) Beta-lactam antibiotics which bind to the TEM-2 enzyme compete with nitrocefin in the assay. […] . This concentration of ampicillin is a direct estimate of the relative affinity of the TEM-2 enzyme for ampicillin. […] . The RSAI value was therefore 1.3.

Experiment [5] relates to K17. It is filed as biochemical, Klebsiella 17.
Text: as §1, §2, §3, §4

Experiment [6] has as its system HMS-1. The format is biochemical, E. coli 1946.
The target of experiment [7] is T2, Chromosomal, induced beta-lactamase enzyme (Pseudomonas aeruginosa, UniProt P24735).
T2 construct: Normally, therefore, the beta-lactamase has to be extracted from the cells for the purpose of the present invention; endogenous in cells; host or cells: Pseudomonas aeruginosa 1937E grown with ampicillin
It is filed as biochemical, Ps.aerug. 1937E + ampicillin.

For experiment [8], the system named is PSE-3. The format is biochemical, Ps.aerug. 1920E.
Experiment [9] deals with PSE-2 (Pseudomonas aeruginosa, UniProt P14489). The format is biochemical, Ps.aerug. 1973E. Also on record: Normally, therefore, the beta-lactamase has to be extracted from the cells for the purpose of the present invention; endogenous in cells.
For experiment [10], the target named is Chromosomal, hyper-induced beta-lactamase enzyme (Escherichia coli, UniProt P00811). It is filed as biochemical, E. coli SNU35. The arrangement: Normally, therefore, the beta-lactamase has to be extracted from the cells for the purpose of the present invention; endogenous in cells; host or cells: E. coli SNU 35 (artificially produced strain).
The subject of experiment [11] is K1073. It is filed as biochemical, Klebsiella 1073.
Text: as §1, §2, §3, §4

In experiment [12] the target is OXA-1 (Escherichia coli, UniProt P13661). The format is biochemical, E. coli 1527E. The arrangement: the beta-lactamase has to be extracted from the cells for the purpose of the present invention; made in house; host or cells: E. coli 1527E according to the earlier reading (crude cell extract).
Experiment [13] concerns K10317. The format is biochemical, K.aerog. 10317.
Text: as §1, §2, §3, §4

For experiment [14], the target named is PSE-4 (Pseudomonas aeruginosa, UniProt P16897). The format is biochemical, Ps.aerug. 1559E. The arrangement: Normally, therefore, the beta-lactamase has to be extracted from the cells for the purpose of the present invention; endogenous in cells.
Experiment [15] addresses PSE-1 (Pseudomonas aeruginosa, UniProt Q03170). It is filed as biochemical, Ps.aerug. 1937E. The arrangement: Normally, therefore, the beta-lactamase has to be extracted from the cells for the purpose of the present invention; endogenous in cells.
For experiment [16], the target named is OXA-2 (Escherichia coli, UniProt P0A1V9). The format is biochemical, E. coli R46. Also on record: the beta-lactamase has to be extracted from the cells for the purpose of the present invention; made in house; host or cells: E. coli carrying R46 according to the earlier reading (crude cell extract).
Experiment [17] deals with TEM-1 (Escherichia coli, UniProt P62593). The format is biochemical, E. coli 2136E. Also on record: the beta-lactamase has to be extracted from the cells for the purpose of the present invention; made in house; host or cells: E. coli 2136E (plasmid-bearing strain; crude cell extract).

Marks after values point to notes of the source that are not given here.

As for `CC1(C)S[C@@H]2[C@H](NC(=O)[C@H](N)c3ccc(O)cc3)C(=O)N2[C@H]1C(=O)O` [Amoxy-cillin, amoxycillin], the RSAI turned out to be 0.05 in experiment [1]; 2.8 in [2]; 8.6 in [3]; 2.2 in experiment [4]; 1.3 in [5]; 0.8 in experiment [6]. Also, the RSAI in [7] stood at 0.035; in experiment [8], 1.5; in experiment [9], 2.2; in experiment [10] it was 0.02; in [11] it was 1.7; in [12], 1.2. Further, the RSAI in experiment [13] is 7; in [14], 1; in [15], 0.9; in experiment [16], 8; in experiment [17] it was 1.3.
Consider `CC1(C)S[C@@H]2[C@H](NC(=O)[C@H](NC(=O)N3CCNC3=O)c3ccccc3)C(=O)N2[C@H]1C(=O)O` [Azlo-cillin, Azlocillin], for which the RSAI in experiment [1] came out at 0.05; in experiment [2], 1.6; in [3], 9; in experiment [4], 1.1; in experiment [5], 1.1; in experiment [6], 0.42. For the same compound, the RSAI in experiment [7] came to 0.05; in experiment [8], 0.54; in experiment [9], 2.64; in experiment [10], 0.02; in experiment [11] it was 1.9; in [12], 1.4. For the same compound, the RSAI in [13] came to 3; in experiment [14] it was 0.36; in [15], 0.23; in experiment [16], 19; in experiment [17], 1.
As to `CC1(C)[C@H](C(=O)O)N2C(=O)C[C@H]2S1(=O)=O` [CP 45,899], the RSAI in experiment [1] is 6.5*; in experiment [2] it was 0.018*; in experiment [3] it was 0.05*; in experiment [4], 0.04*; in experiment [5], 0.5; in experiment [6] it was 0.025*. Moreover, the RSAI in experiment [7] is 2.5*; in experiment [8], 0.0014; in [9], 16; in experiment [10], 1.7*; in experiment [11], 0.18; in experiment [12], 8*. The RSAI in experiment [13] is given as 0.08; in experiment [14], 0.015*; in [15] it was 0.036; in experiment [16], 0.15*; in [17], 0.02.
Take `CC1(C)S[C@@H]2[C@H](NC(=O)C(C(=O)O)c3ccccc3)C(=O)N2[C@H]1C(=O)O` (stereo partly drawn) [Carbeni-cillin, carbenicillin]: the RSAI in [1] was 0.0003*; in experiment [2] it was 0.5; in experiment [3], 12; in experiment [4], 0.4; in experiment [5], 0.4; in [6], 0.09. Also, the RSAI was 0.008 in experiment [7]; 1.35 in experiment [8]; 5.5 in experiment [9]; 0.00005* in experiment [10]; 0.5 in experiment [11]; 0.5 in experiment [12]. Further, the RSAI in experiment [13] worked out at 0.7; in [14] it was 3; in experiment [15] it was 1.4; in [16], 15; in experiment [17], 0.6.
Regarding `CCN1CCN(C(=O)N[C@@H](C(=O)N[C@@H]2C(=O)N3C(C(=O)O)=C(CSc4nnnn4C)CS[C@H]23)c2ccc(O)cc2)C(=O)C1=O` [Cefopera-zone, cefoperazone], the RSAI in experiment [1] is given as 1.3; in [2] it was 4.5; in [3] it was 2; in [4] it was 10; in [5] it was 0.006; in [6], 0.2. For the same compound, the RSAI in [7] is 0.5; in experiment [8], 0.07; in [9] it was 0.48; in experiment [10], 1.9; in experiment [11], 2.2; in experiment [12], 4.5. Moreover, the RSAI was determined as 5 in experiment [13]; 0.014 in [14]; 0.019 in [15]; 2 in [16]; 8 in experiment [17].
As for `CC(C)(O/N=C(\C(=O)N[C@@H]1C(=O)N2C(C(=O)[O-])=C(C[n+]3ccccc3)CS[C@H]12)c1csc(N)n1)C(=O)O` [Ceftazidime (GR 20,263), Ceftazidime], the RSAI was 0.1* in experiment [1]; 1140 in [2]; greater than 400 in [3]; 1500 in experiment [4]; 880 in experiment [5]; 10 in experiment [6]. Moreover, the RSAI was 0.46* in experiment [7]; 144 in [8]; greater than 400 in experiment [9]; 0.2* in experiment [10]; 1420 in experiment [11]; greater than 2000 in [12]. For the same compound, the RSAI in experiment [14] is listed as 420; in experiment [15], 600; in [16], 900; in experiment [17] it was greater than 400.
As for `O=C(Cc1cccs1)N[C@@H]1C(=O)N2C(C(=O)[O-])=C(C[n+]3ccccc3)CS[C@H]12` [Cephalo-ridine, cephaloridine], the RSAI in [1] was determined as 16; in experiment [2] it was 30; in experiment [3], 4.4; in experiment [4], 20; in experiment [5], 5.4; in experiment [6] it was 6. Further, the RSAI in [8] is reported as 2.2; in experiment [9] it was 22; in experiment [10] it was 2*; in experiment [11] it was 19.2; in [12], 60; in experiment [13], 30. For the same compound, the RSAI in [14] was determined as 3.5; in experiment [15], 6; in experiment [16], 4; in experiment [17] it was 40.
